Laboratory results published in US8367687B2, “Pyrazole derivatives” (Novartis AG, priority 2007, dated 2013).
Where two headings read alike, the source gives them in different places.

Key:
Type in all cases: biochemical
CDK2 cyA = CDK2 cyA (Homo sapiens, UniProt P24941); assay: CDK2 cyA IMAP
CDK4 = CDK4 (Homo sapiens, UniProt P11802); assay: CDK4 HTRF
hCDK1/B = hCDK1/B (Homo sapiens, UniProt P06493); assay: hCDK1/B
[1] = Table 2, read-out: CDK2cyA IMAP/ IC50
[2] = Table 2, read-out: CDK4 HTRF/ IC50
[3] = Table 1, read-out: CDK2 cyA IMAP

Chain of CDK4 (P11802 whole entry): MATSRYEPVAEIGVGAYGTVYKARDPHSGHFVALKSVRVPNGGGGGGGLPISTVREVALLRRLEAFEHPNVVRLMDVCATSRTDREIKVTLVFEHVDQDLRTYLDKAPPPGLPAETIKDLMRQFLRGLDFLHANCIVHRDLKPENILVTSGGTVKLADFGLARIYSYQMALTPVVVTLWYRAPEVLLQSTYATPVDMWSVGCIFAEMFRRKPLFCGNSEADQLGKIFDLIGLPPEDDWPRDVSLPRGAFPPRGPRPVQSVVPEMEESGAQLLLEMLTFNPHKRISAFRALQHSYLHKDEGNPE
Chain of CDK4 (P24385 whole entry partner): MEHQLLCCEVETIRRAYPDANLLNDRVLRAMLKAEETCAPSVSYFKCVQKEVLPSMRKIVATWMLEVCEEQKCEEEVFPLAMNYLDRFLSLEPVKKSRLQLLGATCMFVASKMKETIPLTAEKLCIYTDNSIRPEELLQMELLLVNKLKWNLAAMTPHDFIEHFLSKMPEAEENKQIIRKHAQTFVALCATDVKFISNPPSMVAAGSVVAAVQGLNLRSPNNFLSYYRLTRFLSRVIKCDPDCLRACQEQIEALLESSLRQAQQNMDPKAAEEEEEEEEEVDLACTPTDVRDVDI
Chain of hCDK1/B (P06493 whole entry): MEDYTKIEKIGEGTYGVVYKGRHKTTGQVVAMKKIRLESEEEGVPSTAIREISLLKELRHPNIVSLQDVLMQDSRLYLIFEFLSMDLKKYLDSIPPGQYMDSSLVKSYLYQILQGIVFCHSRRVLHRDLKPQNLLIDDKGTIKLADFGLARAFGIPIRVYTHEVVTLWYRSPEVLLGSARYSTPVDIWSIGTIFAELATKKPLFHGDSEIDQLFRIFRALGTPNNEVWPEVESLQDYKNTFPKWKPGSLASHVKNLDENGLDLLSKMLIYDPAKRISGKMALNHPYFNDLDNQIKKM
Chain of hCDK1/B (P14635 whole entry partner): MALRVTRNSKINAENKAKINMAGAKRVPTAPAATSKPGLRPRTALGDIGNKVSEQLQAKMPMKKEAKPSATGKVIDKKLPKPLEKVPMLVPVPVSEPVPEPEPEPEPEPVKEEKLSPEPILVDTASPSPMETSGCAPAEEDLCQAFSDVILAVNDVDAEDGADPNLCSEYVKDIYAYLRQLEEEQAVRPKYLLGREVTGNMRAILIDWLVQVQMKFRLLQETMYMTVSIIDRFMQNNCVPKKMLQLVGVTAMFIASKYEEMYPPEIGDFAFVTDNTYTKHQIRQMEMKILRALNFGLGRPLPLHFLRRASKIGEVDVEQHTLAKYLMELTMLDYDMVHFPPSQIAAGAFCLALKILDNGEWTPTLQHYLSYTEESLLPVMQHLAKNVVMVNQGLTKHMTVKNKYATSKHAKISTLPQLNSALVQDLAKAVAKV

SMILES	IC50 (CDK2 cyA; [1])	IC50 (CDK4; [2])	IC50 (hCDK1/B; Table 2)	IC50 (CDK2 cyA; [3])	IC50 (CDK4; Table 1, read-out: CDK4 HTRF)	IC50 (hCDK1/B; Table 1)
CC(C)c1n[nH]cc1-c1ccnc(NCc2ccccc2Cl)n1 [Example 153]	< 1 µM	< 5 µM	< 1 µM			
CC(C)CNc1cc(-c2cn[nH]c2C(C)C)ccn1 [Example 9]				< 0.5 µM	< 0.5 µM	< 0.5 µM
c1cc(-c2cn[nH]c2C2CCCC2)cc(NC2CCCCC2)n1 [Example 54]				< 1 µM	< 0.5 µM	< 5 µM
CC(C)c1n[nH]cc1-c1ccnc(N[C@@H](C)c2ccccc2)n1 [Example 182]	< 10 µM	< 10 µM	< 5 µM			
CCC(CC)c1[nH]ncc1-c1ccnc(NC2CCN(C(=O)OC(C)(C)C)CC2)c1 [Example 72]				< 5 µM	< 1 µM	< 1 µM
CCC(CC)c1[nH]ncc1-c1ccnc(NC2CCc3ccccc32)c1 (stereo not drawn) [Example 74]				< 5 µM	< 5 µM	< 5 µM
CC(C)c1[nH]ncc1-c1ccnc(NCCc2ccccn2)c1 [Example 29]				< 5 µM	< 1 µM	< 10 µM
COCC(C)Nc1nccc(-c2c[nH]nc2C(C)C)n1 (stereo not drawn) [Example 152]	< 1 µM	< 0.5 µM	< 1 µM			
CC(C)c1[nH]ncc1-c1ccnc(NC2CCN(C)CC2)c1 [Example 78]				< 15 µM	< 0.5 µM	< 10 µM
Cc1nnc(C(C)Nc2nccc(-c3c[nH]nc3C(C)C)n2)[nH]1 (stereo not drawn) [Example 162]	< 15 µM	< 0.5 µM	< 10 µM			
CC(C)c1n[nH]cc1-c1ccnc(NCCCNC2CCCCC2)n1 [Example 148]	< 10 µM	< 5 µM	< 15 µM			
c1cc(-c2cn[nH]c2C2CCCC2)cc(NC2CCCCCC2)n1 [Example 55]				< 1 µM	< 0.5 µM	< 5 µM
Cc1ccccc1CNc1nccc(-c2c[nH]nc2C)n1 [Example 137]	< 10 µM	< 5 µM	< 10 µM			
CC(CCc1ccccc1)Nc1nccc(-c2c[nH]nc2C(C)C)n1 (stereo not drawn) [Example 155]	< 5 µM	< 1 µM	< 5 µM			
Cc1ccccc1CNc1nccc(-c2c[nH]nc2C(C)C)n1 [Example 164]	< 1 µM	< 0.5 µM	< 0.5 µM			
Cc1n[nH]cc1-c1ccnc(NC2CCCCC2)n1 [Example 84]	< 5 µM	< 1 µM	< 5 µM			
CC(C)c1n[nH]cc1-c1ccnc(NC(C)c2ccccc2)n1 (stereo not drawn) [Example 168]	< 5 µM	< 0.05 µM	< 1 µM			
COCCCNc1cc(-c2cn[nH]c2C(C)C)ccn1 [Example 11]				< 5 µM	< 1 µM	< 5 µM
CC(C)CCNc1cc(-c2cn[nH]c2C(C)C)ccn1 [Example 12]				< 5 µM	< 1 µM	< 5 µM
CN1CCC(Nc2cc(-c3cn[nH]c3C3CCCC3)ccn2)CC1 [Example 79]				≥ 15 µM	< 5 µM	< 10 µM
CC(C)c1[nH]ncc1-c1ccnc(NCC2CC2)c1 [Example 8]				< 5 µM	< 0.5 µM	< 5 µM
CC(C)c1[nH]ncc1-c1ccnc(NC2CCc3ccccc32)c1 (stereo not drawn) [Example 43]				< 5 µM	< 0.5 µM	< 5 µM
CC(C)c1[nH]ncc1-c1ccnc(NCCCN2CCCC2)c1 [Example 19]				≥ 15 µM	< 10 µM	≥ 15 µM
c1ccc2c(c1)CC(Nc1cc(-c3cn[nH]c3C3CCCCCC3)ccn1)C2 [Example 67]				< 1 µM	< 5 µM	< 5 µM
c1cc(-c2cn[nH]c2C2CCCC2)cc(NC2CCCC2)n1 [Example 3]				< 0.5 µM	< 0.5 µM	< 1 µM

SMILES	IC50 (CDK2 cyA; [1])	IC50 (CDK4; [2])	IC50 (hCDK1/B; Table 2)	IC50 (CDK2 cyA; [3])	IC50 (CDK4; Table 1, read-out: CDK4 HTRF)	IC50 (hCDK1/B; Table 1)
Cc1n[nH]cc1-c1ccnc(NC2CCc3ccccc32)n1 (stereo not drawn) [Example 112]	< 10 µM	< 0.5 µM	< 10 µM			
CC(C)c1n[nH]cc1-c1ccnc(NCc2ccc(N(C)C)cc2)n1 [Example 147]	< 5 µM	< 5 µM	< 5 µM			
Cc1n[nH]cc1-c1ccnc(NC2CCN(C)CC2)n1 [Example 90]	< 15 µM	< 0.5 µM	< 15 µM			
c1ccc2c(c1)CCC2Nc1cc(-c2cn[nH]c2C2CC2)ccn1 (stereo not drawn) [Example 70]				< 5 µM	< 0.5 µM	< 5 µM
Cc1[nH]nc(C(C)C)c1-c1ccnc(NC2CCN(C)CC2)n1 [Example 185]	≥ 15 µM	< 5 µM	≥ 15 µM			
CC(C)c1[nH]ncc1-c1ccnc(NC2CCCCC2)c1 [Example 7]				< 0.5 µM	< 0.5 µM	< 1 µM
Cc1n[nH]cc1-c1ccnc(NC2CCCC2)n1 [Example 86]	< 5 µM	< 1 µM	< 5 µM			
CC(C)c1nn(C)cc1-c1ccnc(NC2CCN(C)CC2)n1 [Example 181]	< 5 µM	< 0.5 µM	< 5 µM			
CC(C)c1n[nH]cc1-c1ccnc(NCCCN(C)C)n1 [Example 167]	< 10 µM	< 1 µM	< 5 µM			
CC(C)COCCCNc1nccc(-c2c[nH]nc2C(C)C)n1 [Example 150]	< 5 µM	< 0.5 µM	< 1 µM			
CC(C)c1[nH]ncc1-c1ccnc(NCCc2cccnc2)c1 [Example 15]				< 5 µM	< 0.5 µM	< 5 µM
CCC(C)Nc1nccc(-c2c[nH]nc2C(C)C)n1 (stereo not drawn) [Example 171]	< 0.5 µM	< 0.05 µM	< 0.5 µM			
CC(C)c1[nH]ncc1-c1ccnc(NCc2ccccc2C(F)(F)F)c1 [Example 50]				< 5 µM	< 1 µM	< 5 µM
CC(C)c1n[nH]cc1-c1ccnc(NC(C)c2ccccn2)n1 (stereo not drawn) [Example 183]	< 10 µM	< 0.5 µM	< 10 µM			
CC(C)c1[nH]ncc1-c1ccnc(NCc2ccco2)c1 [Example 24]				< 5 µM	< 1 µM	< 5 µM
c1ccc(CCNc2cc(-c3cn[nH]c3C3CCCC3)ccn2)cc1 [Example 58]				< 5 µM	< 0.5 µM	< 5 µM
CC(C)c1[nH]ncc1-c1ccnc(NCC2CCCCC2)c1 [Example 6]				< 5 µM	< 5 µM	< 5 µM
CC(C)c1n[nH]cc1-c1ccnc(NC2CCCc3cccnc32)n1 (stereo not drawn) [Example 186]	> 15 µM	< 0.5 µM	≥ 15 µM			
Cc1ccccc1CNc1cc(-c2cn[nH]c2C(C)(C)C)ccn1 [Example 76]				≥ 15 µM	< 10 µM	< 15 µM
CC(C)c1[nH]ncc1-c1ccnc(NCCCCN2CCCC2)c1 [Example 33]				≥ 15 µM	< 5 µM	≥ 15 µM
CN1CCC(Nc2cc(-c3cn[nH]c3C(C)(C)C)ccn2)CC1 [Example 77]				< 15 µM	< 15 µM	≥ 15 µM
CC(C)c1[nH]ncc1-c1ccnc(NC2CC2)c1 [Example 39]				< 1 µM	< 0.5 µM	< 5 µM
Cc1n[nH]cc1-c1ccnc(NCCc2cccnc2)n1 [Example 132]	< 10 µM	< 1 µM	< 10 µM			
c1cncc(CCNc2cc(-c3cn[nH]c3C3CCCC3)ccn2)c1 [Example 59]				< 5 µM	< 0.5 µM	< 5 µM
